{
  "source": "patent US11209440B2",
  "about": "“T cell balance gene expression, compositions of matters and methods of use thereof” (THE BROAD INSTITUTE, INC., priority 2014, dated 2021)",
  "molecules": {"B1": {"name": "activated protein C: the ligand of PROCR (protein, UniProt P04070 200-461, looked up)", "Vitamin K-dependent protein C …": "DTEDQEDQVDPRLIDGKMTRRGDSPWQVVLLDSKKKLACGAVLIHPSWVLTAAHCMDESKKLLVRLGEYDLRRWEKWELDLDIKEVFVHPNYSKSTTDNDIALLHLAQPATLSQTIVPICLPDSGLAERELNQAGQETLVTGWGYHSSREKEAKRNRTFVLNFIKIPVVPHNECSEVMSNMVSENMLCAGILGDRQDACEGDSGGPMVASFHGTWFLVGLVSWGEGCGLLHNYGVYTKVSRYLDWIHGHIRDKEAPQKSWAP", "modifications": "Vitamin K-dependent protein C heavy chain activated two-chain form", "notes": "the ligand of PROCR"}},
  "key": {"Rorγt": {"biological_target": "T1, Rorγt (Mus musculus, UniProt P51450)", "T1 sequence (P51450 1-495 isoform P51450-2)": "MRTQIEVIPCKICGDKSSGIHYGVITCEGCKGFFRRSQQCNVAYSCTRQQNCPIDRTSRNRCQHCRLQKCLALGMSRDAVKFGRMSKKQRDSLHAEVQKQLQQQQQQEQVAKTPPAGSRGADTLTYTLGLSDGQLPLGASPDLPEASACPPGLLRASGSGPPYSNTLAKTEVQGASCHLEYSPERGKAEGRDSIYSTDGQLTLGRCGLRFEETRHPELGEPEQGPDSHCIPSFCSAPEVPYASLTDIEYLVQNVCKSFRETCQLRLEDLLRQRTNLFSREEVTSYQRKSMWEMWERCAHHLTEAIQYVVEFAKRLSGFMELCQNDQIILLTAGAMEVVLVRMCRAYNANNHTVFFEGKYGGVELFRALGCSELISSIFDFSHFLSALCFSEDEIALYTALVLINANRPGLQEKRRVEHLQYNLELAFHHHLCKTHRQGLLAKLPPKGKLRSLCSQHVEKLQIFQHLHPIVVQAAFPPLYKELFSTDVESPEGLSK", "test": "Dual luciferase reporter assay in EL4 cells stably transfected with Rorγt vector", "format": "cell-based", "design": "expressed in transfected cells; host or cells: EL4 cells, stably transfected", "conditions": "EL4 cells with Rorγt and CD5L vector; 5, 0.5, 0.05 μM titration", "description": "Lipidome analysis of Th17 cells. (A) WT and CD5L^−/− naïve T cells were differentiated as in FIG. 46B in the presence of cytokines as indicated. Cells and supernatant were harvested at 96 hours and subjected to MS/LC. Three independent mouse experiments were performed. […] (B) Expression of representative metabolites including a cholesterol ester and a PUFA-containing TAG species. FIG. 48 C, D, E, F-J show as follows: (C) Metabolomic analysis of independent mouse experiments where T cells were differentiated under various cytokine conditions as indicated and harvested at 48 h and 96 h. (D,E) Rorγt ChIP from Th17 cells differentiated as described in A. under various conditions as indicated. F-K. Dual luciferase reporter assay was performed in EL4 cells stably transfected with a control vector or Rorγt vector. (F, G) CD5L retroviral vector was cotransfected in F and G at 0, 25, 50 and 100 ng/well. […] All ChIP and luciferase assay are representative of at least 3 independent experiments."}, "Th17 cells [1]": {"system": "Th17 cells", "test": "FACS of IL-17 and IL-23R.GFP in Th17 cells treated with free fatty acids", "format": "cell-based, mouse", "conditions": "10 uM arachidonic acid or 20 uM palmitic acid, 48 h, FACS", "description": "(§1) (A) Naïve T cells were sorted from either WT or IL-23RGFP reporter mice, activated with plate-bound anti-CD3/anti-CD28 and differentiated with TGFβ1+IL-6 for 48 hours. […] (B) Cells from WT and Rorc^−/− mice were sorted, differentiated and treated with FFA as in A. Cells were harvested for RNA purification and qPCR. (C) Naïve WT and CD5L^−/− T cells were differentiated as in A. Cells were then lifted, washed and replated in fresh media with no addition of cytokines and in the presence of control or 5 uM of arachidonic acid (PUFA). Cytokine profile of T cells were measured after PMA/ionomycin restimulation. […] Another 48 hours later, cells were harvested for nanostring analysis (D) or qPCR (E)."}, "Th17 cells [2]": {"system": "Th17 cells", "test": "qPCR and Nanostring signature analysis of Th17 cells treated with free fatty acids", "format": "cell-based, mouse", "description": "as §1\nNext, the contribution of lipid saturation to Th17 cell pathogenicity was studied."}, "PROCR [3]": {"biological_target": "T2, PROCR (Mus musculus, UniProt Q64695)", "T2 construct": "endogenous in cells; host or cells: primary naïve CD4+ T cells polarised to Th17 (TGF-β1 + IL-6)", "T2 sequence (Q64695 18-242)": "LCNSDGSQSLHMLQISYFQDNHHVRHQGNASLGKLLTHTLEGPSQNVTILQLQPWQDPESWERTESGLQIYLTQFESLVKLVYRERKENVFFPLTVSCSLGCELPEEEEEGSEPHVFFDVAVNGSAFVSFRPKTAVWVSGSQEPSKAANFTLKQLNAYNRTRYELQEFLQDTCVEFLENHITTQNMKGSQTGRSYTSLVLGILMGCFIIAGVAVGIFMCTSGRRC", "test": "qRT-PCR of pathogenic/non-pathogenic signature genes in Th17 cells differentiated in the presence of activated protein C", "format": "cell-based", "excerpt": "FIG. 23A depicts quantitative RT-PCR analysis of mRNA expression of several pathogenic signature genes in Th17 cells differentiated with TGFβ1 and IL-6 in the presence of activated protein C (aPC) for 3 days in vitro. FIG. 23B depicts quantitative RT-PCR analysis of mRNA expression of several pathogenic signature genes in naïve CD4^+ T cells polarized under Th17 conditions, transduced with either GFP control retrovirus (Control RV) or PROCR-expressing retrovirus (PROCR RV) for 3 days. FIG. 23C depicts quantitative RT-PCR analysis of mRNA expression of several pathogenic signature genes in Th17 cells from EPCR δ/δ mice and control mice differentiated with TGFβ1 and IL-6 for 3 days in vitro.\nFIGS. 32A-32D are a series of graphs depicting how PROCR and PD-1 expression affects Th17 pathogenicity. FIG. 32A depicts signature genes of pathogenic and non-pathogenic Th17 cells. Naïve CD4+ T cells were differentiated into non-pathogenic (TGFβ1+IL-6) or pathogenic (TGFβ3+IL-6 or IL-β1+IL-6) Th17 cells and PROCR expression was determined by quantitative PCR. FIG. 32B depicts how naïve WT or PROCRd/d CD4+ T cells were stimulated under Th17 polarizing conditions (TGFβ1+IL-6) in the presence or absence of aPC. Quantitative expression of three pathogenic signature genes was determined on day 3. […] Mice were monitored for EAE. […] Mice were monitored for EAE."}, "PROCR [4]": {"biological_target": "T2, PROCR", "test": "Intracellular IFN-γ/IL-17 staining and IL-17 ELISA of Th17 cells differentiated with activated protein C", "format": "cell-based", "conditions": "aPC 300 nM; flow cytometry day 3, ELISA day 3 and 5", "description": "FIG. 20A depicts how naïve CD4+ T cells were differentiated into Th17 cells by anti-CD3/anti-CD28 stimulation in the presence of activated protein C (aPC, 300 nM), the ligand of PROCR. On day 3, cells were stimulated with PMA and Ionomycin for 4 hr, stained intracellularly for IFN-γ and IL-17 and analyzed by flow cytometry. FIG. 20B depicts IL-17 production from Th17 cells (TGF-β+IL-6) differentiated with or without activated protein C (aPC and Ctl, respectively) was assessed by ELISA on Day 3 and 5. FIG. 20C depicts how naïve CD4+ T cells were polarized under Th17 conditions (TGF-β+IL-6), transduced with either GFP control retrovirus (Ctl RV) or PROCR-expressing retrovirus (PROCR RV). Intracellular expression of IFN-γ and IL-17 in GFP+ cells were assessed by flow cytometry. FIG. 20D depicts how naïve CD4+ T cells from EPCR δ/δ mice and control mice were polarized under Th17 conditions with TGF-β1 and IL-6. Intracellular expression of IFN-γ and IL-17 were assessed by flow cytometry."}, "EAE": {"system": "EAE", "test": "EAE (experimental autoimmune encephalomyelitis) clinical scoring", "format": "in vivo, mouse", "conditions": "schematic of PROCR regulation (FIG. 26D)", "excerpt": "FIGS. 26A-26D are a series of graphs and illustrations depicting that PROCR deficiency exacerbates EAE severity. FIG. 26A depicts frequency of CD4+ T cells expressing IL-17 and PROCR isolated from EAE mice 21d after immunization with MOG35-55. FIG. 26B depicts how EAE was induced by adoptive transfer of MOG35-55-specific 2D2 cells transduced with a control retrovirus (Ctl_GFP) or a PROCR-expression retrovirus (PROCR_RV) and differentiated into Th17 cells. Mean clinical scores and summaries for each group are shown. Results are representative of one of two experiments. FIG. 26C depicts how Rag1−/− mice were reconstituted with either PROCR-deficient (EPCR δ/δ→Rag1−/−) or WT T cells (WT→Rag1−/−) and immunized with MOG35-55 to induce EAE. The mean clinical score of each group is shown. Results are representative of one of two experiments. FIG. 26D depicts a schematic representation of PROCR regulation. Rorγt, IRF4, and STAT3 induce PROCR expression.\nCyTOF and flow cytometry: Active induction of EAE and disease analysis: For active induction of EAE, mice were immunized by subcutaneous injection of 100 μg MOG (35-55) ([…]) (SEQ ID NO: 1395) in CFA, then received 200 ng pertussis toxin intraperitoneally (List Biological Laboratory) on days 0 and 2. […]"}},
  "note": "Entries after “also recorded” stand apart in the source; their conditions may differ.",
  "data": [
    {"molecule": "CC(CO)CCC[C@@H](C)[C@H]1CC[C@H]2[C@@H]3C(O)C=C4C[C@@H](O)CC[C@]4(C)[C@H]3CC[C@]12C", "note": "(stereo partly shown) [7, 27 dihydroxycholesterol, 7, 27-dihydroxycholesterol]", "values": [
      {"measurement": "Il17 reporter transcription under CD5L-driven suppression", "setting": "Rorγt", "result": "rescued the CD5L-driven suppression"}
    ]},
    {"molecule": "CCCCCCCCCCCCCCCC(=O)O", "note": "[SFA, palmitic acid]", "values": [
      {"measurement": "percentage of IL-23R.GFP+ CD4 T cells", "setting": "Th17 cells [1]; IL-23RGFP reporter Th17 (TGFβ1+IL-6) expanded with IL-23", "result": "increased the expression of both IL-17 and IL-23R expression, but this effect was not significant"},
      {"measurement": "percentage of IL-17+ CD4 T cells", "setting": "Th17 cells [1]; WT Th17 (TGFβ1+IL-6) expanded with IL-23", "result": "increased the expression of both IL-17 and IL-23R expression, but this effect was not significant"},
      {"measurement": "316 gene signature of Th17 cell differentiation and function", "setting": "Th17 cells [2]; WT Th17 cells (TGFβ1+IL-6), 25 uM palmitic acid, Nanostring nCounter", "result": "more similar to CD5L^−/− Th17 cells"},
      {"measurement": "Il22 expression", "setting": "Th17 cells [2]; qPCR", "result": "increased"},
      {"measurement": "expression of key pathogenicity signature genes Il10, Il23r, Ccl5, Csf2 and Lag3", "setting": "Th17 cells [2]; qPCR", "result": "reciprocally regulated"}
    ]},
    {"molecule": "B1", "values": [
      {"measurement": "mRNA expression of pathogenic signature genes in Th17 cells", "setting": "PROCR [3]; Th17 cells differentiated with TGFβ1 and IL-6 in the presence of aPC for 3 days, quantitative RT-PCR", "result": "impairs some pathogenic signature genes; also recorded: downregulation of the pathogenic signature genes IL-3, CXCL3, CCL4 and Pdp; also recorded: decreased the expression of some of the genes"},
      {"measurement": "expression of non-pathogenic signature genes in Th17 cells", "setting": "PROCR [3]; Th17 polarizing conditions (TGFβ1+IL-6) with aPC, day 3", "result": "induces some non-pathogenic signature genes"},
      {"measurement": "cytokine production (IFN-γ, IL-17) from Th17 cells", "setting": "PROCR [4]", "result": "not essential for cytokine production"},
      {"measurement": "pathogenicity in EAE", "setting": "EAE", "result": "reduced pathogenicity"}
    ]}
  ]
}
